Data from paper PMC6362850 (European journal of medicinal chemistry, 2018).

Test system: not listed separately
Assay: Aqueous solubility assay in DPBS
Format: physicochemical
Settings: thermodynamic, 72 h, ambient temperature

Compound | Aqueous Solubility
Cc1c(C(=O)Nc2ccc(F)c(C#N)c2)sc(N)c1C(N)=O [Compound 19l] | poor aqueous solubility
Cc1c(C(=O)Nc2ccc(F)c(C(F)F)c2)sc(N)c1C(N)=O [Compound 19o] | poor aqueous solubility
Cc1c(C(=O)Nc2ccc(F)c(F)c2)sc(N)c1C(N)=O [Compound 19g] | poor aqueous solubility

Molecular target: T1, HBV Cp (Hepatitis B virus genotype D subtype ayw, UniProt P03146, R150C)
Assay: not given
Format: binding
Settings: not given

Compound | Cp binding in TSA, in words
Cc1c(C(=O)Nc2ccccc2)sc(NC(=O)N2CCOCC2)c1C(N)=O [Compound 12a, 3-Methyl-5-(morpholine-4-carboxamido)-N2-phenylthiophene-2,4-dicarboxamide] | completely inactive
Cc1c(C(=O)Nc2ccc(F)cc2)sc(N)c1C(N)=O [Compound 19e] | strong Cp binding
Cc1c(C(=O)Nc2ccccc2)sc(-n2cnnn2)c1C(N)=O [Compound 12k] | completely inactive
Cc1c(C(=O)Nc2ccc(F)c(F)c2)sc(N)c1C(=O)NC1CCCC1 [Compound 16m] | retained strong Cp binding
Cc1c(C(=O)Nc2cc(F)c(F)c(Cl)c2)sc(N)c1C#N [Compound 14d] | loss of binding affinity
Cc1cc(NC(=O)c2sc(N)c(C(N)=O)c2C)ccc1F [Compound 19h] | only the denaturation peak corresponding to fully assemble capsid was observed
5-Amino-4-carbamothioyl-N-(3,4-difluorophenyl)-3-methylthiophene-2-carboxamide [Compound 13] | Strong binding
COc1ccc(NC(=O)c2sc(N)c(C(N)=O)c2C)cc1 [Compound 19b] | Cp binding was preserved
Cc1c(C(=O)NCc2ccccc2)sc(N)c1C(N)=O [Compound 19a] | strong Cp binding was preserved
Cc1c(C(=O)Nc2ccccc2)sc(N)c1C#N [Compound 14a] | loss of binding affinity

Molecular target: T1, HBV Cp
Assay: not given
Settings: HTS of commercial libraries; cited from earlier work

Compound | Binding to HBV Cp in TSA (HTS), in words
Cc1c(C(=O)Nc2ccccc2)sc(N)c1C(N)=O [Compound 11, 5-Amino-3-methyl-N2-phenylthiophene-2,4-dicarboxamide] | strong binder

Molecular target: HBV capsid (Hepatitis B virus genotype D subtype ayw, UniProt P03146, R150C)
Assay: Transmission electron microscopy of HBV capsid assembly
Format: biochemical
Settings: compared to DMSO control

Compound | Effect on HBV capsid assembly (TEM)
Cc1cc(NC(=O)c2sc(N)c(C(N)=O)c2C)ccc1F [Compound 19h] | promoted the aggregation of HBV capsid
